From PubChem BioAssay AID844 (SRMLSC, 2007)
Activity calls are given as the source filed them. No rule for the calls is given here.

Test system: MRP1 cells, doxorubicin viability shift, 10 uM compound
Experiment: viability protection against doxorubicin, MRP-1 line – cell-based, doxorubicin EC50 shift, dose response (AID 844)
Conditions: for EC50: measured here: doxorubicin EC50 with compound

Row | Compound | fold increase in Dox EC50 | EC50
1 | Cc1ccc2[nH]c(=O)c(C(c3nnnn3C3CCCC3)N3CCCc4ccccc43)cc2c1 (stereo not given) | 1 (inactive) | 5.41 µM
2 | CC1CCc2c(C(=O)OCC(=O)Nc3cccc(S(=O)(=O)N4CCCCCC4)c3)csc2C1 (stereo not given) | 1.05 (inactive) | 5.68 µM
3 | Cc1sc2nc(C3CC3)nc(N3CCN(S(=O)(=O)c4ccc(F)cc4)CC3)c2c1C | 0.3 (inactive) | 1.63 µM
4 | Cc1cccc(-n2ncc3c(N4CC(C)CC(C)C4)ncnc32)c1 (stereo not given) | 0.6 (inactive) | 3.25 µM
5 | CCC1(C)Cc2c(sc3nnn(CC(=O)Nc4ccc(C)cc4)c(=O)c23)CO1 (stereo not given) | 1.07 (inactive) | 5.79 µM
6 | Cc1cccc(Nc2nnc(SCC(=O)Nc3cccnc3Cl)s2)c1 | 0.61 (inactive) | 3.3 µM
7 | O=C1NC(=Nc2ccccc2)SC1Cc1cccc(Cl)c1Cl (stereo not given) | 1.21 (inactive) | 6.54 µM
8 | O=C(NCc1ccc(F)cc1)C(=O)NCC1OCCN1C(=O)c1cccs1 (stereo not given) | 1.24 (inactive) | 6.68 µM
9 | Cc1ccccc1NC(=O)CSC1=NCCN1 | 0.69 (inactive) | 3.73 µM
10 | CC(NC(=O)CN1CCN(Cc2ccc(Cl)cc2)C1=O)c1ccc2c(c1)OCCO2 (stereo not given) | 0.87 (inactive) | 4.67 µM
11 | N/C(Cc1cccs1)=N\OC(=O)COc1ccc(Br)cc1 | 1.01 (inactive) | 5.44 µM
12 | N#CCSc1n[nH]c2nc3c(c(=O)n12)C1(CCCC1)Cc1ccccc1-3 | 0.46 (inactive) | 2.49 µM
13 | O=C1c2ccccc2-c2nc3ccccc3n21 | 1.09 (inactive) | 5.87 µM
14 | c1ccc(N2CCN(c3nc(-c4cccs4)nc4ccccc34)CC2)cc1 | 0.81 (inactive) | 4.37 µM
15 | N#Cc1nc(COc2ccc(Br)cc2)oc1N1CCCC1 | 1.26 (inactive) | 6.8 µM
16 | O=C(CSc1nnc(-c2ccccc2)n1-c1ccc(Cl)cc1)N/N=C/c1ccco1 | 0.53 (inactive) | 2.84 µM
17 | Cc1ccc(C)c2sc(NC(=O)c3ccc(N4CCCCC4)c([N+](=O)[O-])c3)nc12 | 1.05 (inactive) | 5.66 µM
18 | Cc1onc(-c2ccccc2Cl)c1C(=O)OCC(=O)Nc1ccc2c(c1)OCO2 | 1.19 (inactive) | 6.42 µM
19 | O=C(NC(=S)Nc1ccccc1N1CCCCC1)c1ccc(-c2cccc([N+](=O)[O-])c2)o1 | 1.3 (inactive) | 7.02 µM
20 | CCOC(=O)c1sc(-c2ccccc2)cc1NC(=O)Nc1ccccc1 | 0.4 (inactive) | 2.16 µM
21 | O=C(CSc1ncn[nH]1)Nc1ccc(Br)cc1F | 0.98 (inactive) | 5.28 µM
22 | CCC1(C)Cc2c(sc3nnn(CC(=O)Nc4ccc(Cl)cc4)c(=O)c23)CO1 (stereo not given) | 0.2 (inactive) | 1.09 µM
23 | CCC(=O)N1CCN=C1SCc1ccccc1 | 0.74 (inactive) | 3.98 µM
24 | CCOC(=O)CCCCC(=O)c1[nH]c(=O)[nH]c1CSc1nc(-c2ccccc2)c(C#N)c(=O)[nH]1 | 1.22 (inactive) | 6.57 µM
25 | Cc1cccc(N2CCN(C(=O)Cc3ccc(Br)cc3)CC2)c1C | 0.95 (inactive) | 5.11 µM

Row | Compound | fold increase in Dox EC50 | EC50
26 | CC(C)N(Cc1cc2ccccc2[nH]c1=O)C(=O)C(C)(C)C | 1.47 (inactive) | 7.93 µM
27 | O=C(/C=C/c1ccc([N+](=O)[O-])cc1)N1CCN(c2ccccc2F)CC1 | 0.56 (inactive) | 3.05 µM
28 | N#CCn1nnc(-c2ccc3c(c2)OCO3)n1 | 1.01 (inactive) | 5.43 µM
29 | CCOC(=O)c1ccc(NC(=O)C2CCN(C(=O)c3ccc(OC)c(OC)c3)CC2)cc1 | 0.99 (inactive) | 5.35 µM
30 | CCOC(=O)/C(=N\Nc1ccccc1Cl)N1CCN(Cc2ccccc2)CC1 | 0.63 (inactive) | 3.43 µM
31 | CCOC(=O)/C=C1\SCC(=O)N1CCOc1cccc(Br)c1 | 1.2 (inactive) | 6.5 µM
32 | CC1(C)O[C@@H]2C[C@H]3[C@@H]4CCC5=CC(=O)C=C[C@]5(C)[C@@]4(F)[C@@H](O)C[C@]3(C)[C@]2(C(=O)CO)O1 | 0.62 (inactive) | 3.33 µM
33 | O=C(CSc1ncn[nH]1)NCCC(c1ccccc1)c1ccccc1 | 0.56 (inactive) | 3.03 µM
34 | O=C(Nc1ncc(Cc2ccccc2Cl)s1)c1ccc(-c2cccc([N+](=O)[O-])c2)o1 | 0.81 (inactive) | 4.38 µM
35 | CCc1nn2c(N)c(/C=C3\C=Nc4ccccc43)c(=O)nc2s1 | 1.43 (inactive) | 7.74 µM
36 | Cn1c(=O)oc2cc(S(=O)(=O)N3CCCC(C(=O)NCC4COc5ccccc5O4)C3)ccc21 (stereo not given) | 0.53 (inactive) | 2.86 µM
37 | Cc1cc2n(n1)C(c1ccccc1)CC(c1ccc(Br)cc1)=N2 (stereo not given) | 0.76 (inactive) | 4.12 µM
38 | Cc1ccc(OCc2nnc(SCC(=O)Nc3cccc4ccccc34)n2-c2ccccc2)cc1 | 0.33 (inactive) | 1.8 µM
39 | O=C(NCc1ccc(Cl)cc1)C(=O)NCC(c1ccco1)N1CCOCC1 (stereo not given) | 1.25 (inactive) | 6.77 µM
40 | Cc1ccc(C(c2nnnn2CS(=O)(=O)c2ccc(C)cc2)N2CCN(c3ncccn3)CC2)cc1 (stereo not given) | 0.48 (inactive) | 2.58 µM
41 | S=C(c1ccc(-c2ccccc2Cl)o1)N1CCCCC1 | 0.85 (inactive) | 4.59 µM
42 | O=C(CSCc1ccc(Cl)cc1)N1CCN(Cc2ccc3c(c2)OCO3)CC1 | 0.77 (inactive) | 4.18 µM
43 | Clc1ccc(CSc2ncn[nH]2)cc1 | 1.03 (inactive) | 5.54 µM
44 | CC(=O)Nc1nc(C)c(Oc2ccc(Cl)cc2Cl)c(=O)[nH]1 | 0.74 (inactive) | 4.01 µM
45 | CC(C)OC(=O)CSc1nnc2n1C(C)(C)Cc1ccccc1-2 | 0.82 (inactive) | 4.42 µM
46 | CCC(Oc1ccccc1)C(=O)Nc1nnc(C(F)(F)F)s1 (stereo not given) | 1.69 | 9.1 µM
47 | CNc1sc(C(=O)c2cccs2)c(N)c1-c1nc2ccccc2s1 | 0.56 (inactive) | 3.03 µM
48 | CC(O)(CS(=O)(=O)Cc1ccccc1)C(=O)Nc1ccc(C(F)(F)F)cc1 (stereo not given) | 1.27 (inactive) | 6.84 µM
49 | O=C(Nc1nc(-c2ccc(Oc3ccccc3)cc2)cs1)C1=COCCO1 | 0.84 (inactive) | 4.54 µM
50 | CCOC(=O)c1ccc(Oc2nc(NC(C)(C)C)nc(N(C)C)n2)cc1 | 0.82 (inactive) | 4.43 µM

Row | Compound | fold increase in Dox EC50 | EC50
51 | Cc1cc(=O)oc2c1ccc1oc(/C(=N/O)c3ccccc3)c(C)c12 | 1.3 (inactive) | 7.02 µM
52 | Cc1ccc(-n2c(C)nnc2SCC(=O)Nc2ccccc2)cc1 | 1 (inactive) | 5.41 µM
53 | CCCC1S/C(=N/N=C/c2ccc(OC)cc2)N(Cc2ccccc2)C1=O (stereo not given) | 1 (inactive) | 5.39 µM
54 | O=C(CN1C(=O)S/C(=C\c2ccc(Cl)cc2)C1=O)NNC(=O)c1ccccc1O | 1.05 (inactive) | 5.65 µM
55 | N#C/C(=N/Nc1ccccc1F)C(=N)N1CCOCC1 | 0.99 (inactive) | 5.33 µM
56 | Cc1ccc(S(=O)(=O)Nc2ccc3ncccc3c2)cc1 | 1.36 (inactive) | 7.32 µM
57 | O=C(NC(=S)Nc1ccccn1)c1cc(-c2ccccc2)nc2ccccc12 | 0.91 (inactive) | 4.93 µM
58 | Cc1ccc2c(C)nc(/N=C(\N)NC(=O)N3c4ccccc4Sc4ccccc43)nc2c1 | 1.38 (inactive) | 7.48 µM
59 | CCOc1ccccc1N(C(=O)c1snc(C(N)=O)c1N)C(C(=O)NCCC(C)C)c1ccco1 (stereo not given) | 0.3 (inactive) | 1.62 µM
60 | O=C(NCc1ccccn1)c1cc(-c2ccc(-c3ccccc3)cc2)nc2ccccc12 | 0.57 (inactive) | 3.1 µM
61 | CCOC(=O)c1cc(-c2ccccc2)sc1NC(=O)C(C)Sc1nnc(C)s1 (stereo not given) | 0.53 (inactive) | 2.87 µM
62 | COc1ccc(CNc2nc(NCc3ccc(OC)cc3)n(C(=O)c3ccccc3[N+](=O)[O-])n2)cc1 | 0.72 (inactive) | 3.9 µM
63 | C=CCOc1ccc(CNc2ccc(NC(=O)CC(C)C)cc2)cc1OC | 0.82 (inactive) | 4.43 µM
64 | O=C1NC(=O)C2(COC(c3ccccc3Cl)OC2)S1 (stereo not given) | 0.69 (inactive) | 3.74 µM
65 | O=C1c2cccc3cccc(c23)C(=O)N1c1ccncc1 | 1.13 (inactive) | 6.09 µM
66 | COc1cc(/C=C(\C#N)c2ccccn2)ccc1OCc1ccccc1Cl | 1.1 (inactive) | 5.95 µM
67 | COc1ccc(C2CC(c3ccc(Cl)cc3Cl)Nc3nc(N)nn32)cc1OC (stereo not given) | 1.05 (inactive) | 5.68 µM
68 | CCN=c1scc(C)n1/N=C/c1ccc(O)c(O)c1O | 0.18 (inactive) | 0.985 µM
69 | Cc1nnc(NC(=O)c2c(F)cccc2F)s1 | 1.23 (inactive) | 6.63 µM
70 | O=C(NCCc1ccccc1)C(=O)c1c(-c2ccccc2)cc2ccccn12 | 1.08 (inactive) | 5.84 µM
71 | N=c1oc2c3c4c(cc2cc1C(=O)Nc1ccccc1)CCCN4CCC3 | 0.43 (inactive) | 2.32 µM
72 | COc1ccccc1C1CC(c2ccc(Cl)cc2Cl)Nc2nc(N)nn21 (stereo not given) | 0.95 (inactive) | 5.11 µM
73 | O=C(CC1SC(=O)N(Cc2ccc(Cl)cc2)C1=O)Nc1nccs1 (stereo not given) | 1.75 | 9.46 µM
74 | CC1(C)CC(=O)C2=C(C1)N=C1SCCC(=O)N1C2c1ccc(C(F)(F)F)cc1 (stereo not given) | 1.21 (inactive) | 6.51 µM
75 | Cc1nc(OCc2ccccc2)c2sc3nc4c(cc3c2n1)COC(C)(C)C4 | 1.3 (inactive) | 7.04 µM
